Source: patent US20180228823A1, “ANTI-DIABETIC EFFECTS OF GYPENOSIDE 75” (INTELLIGENT SYNTHETIC BIOLOGY CENTER, priority 2016, published 2018)

Key:
Format in all cases: cell-based
INS-1 cells [1] = test: Intracellular ATP amount by luciferase/luciferin assay in INS-1 cells; details: 10 μM, 2 hours, luciferase
Method: (§1) If mitochondrial function is impaired, it may cause diabetes mellitus by interfering with insulin signaling. Accordingly, in order to confirm the effect of gypenoside 75 on the activation of the mitochondrial function, after gypenoside 75 was treated, an increased amount of ATP and mitochondrial membrane potentials were measured. Specifically, in order to confirm the effect of gypenoside 75 on the activation of the mitochondrial function, INS-1 cells, which are insulin-secreting cells, were cultured in a cell incubator (37° C., 5% CO2, RPMI culture medium, 10% FBS). The cells were treated with 10 μM of gypenoside 75 for 2 hours, and the amount of ATP and mitochondrial membrane potentials inside the cells were then measured. To measure the amount of intracellular ATP, the INS-1 cells treated with gypenoside 75 were lysed through freezing-thawing and ultrasonication methods. The cell lysates were mixed with luciferase and luciferin to induce fluorescence. As the activation of the luciferase and fluorescence induced thereby depend on the amount of ATP, the degree of fluorescence was measured with a fluorometer to determine the amount of ATP. To measure the mitochondrial membrane potential, the INS-1 cells treated with gypenoside 75 were then stained with TMRM, and the degree of the staining of each cell was measured using a FACS instrument. As the mitochondrial membrane potential increases, the degree of staining by TMRM increases.

INS-1 cells [2] = test: Mitochondrial membrane potential by TMRM staining and FACS in INS-1 cells; details: 10 μM, 2 hours, TMRM staining, FACS
Method: as §1

INS-1 cells [3] = test: Insulin secretion of INS-1 cells measured by ELISA; details: 10 μM, 2 hours
Method: In order to confirm the effect of gypenoside 75 on an increase in insulin secretion, the amount of insulin secreted after treatment with gypenoside 75 was measured. Specifically, in order to confirm the effect of gypenoside 75 on an increase in insulin secretion, INS-1 cells, which are insulin-secreting cells, were cultured in a cell incubator (37° C., 5% CO2, RPMI culture medium, 10% FBS). The cells were treated with each of 10 μM of gypenoside 75, ginsenoside F1, ginsenoside Rg3, ginsenoside Rb2, and ginsenoside Rb3 for 2 hours, and the amounts of insulin secreted after the treatments were then measured via the ELISA method.

| Compound | increase of the amount of intracellular ATP compared to control group (DMSO) (INS-1 cells [1]) | increase of mitochondrial membrane potential compared to control group (DMSO) (INS-1 cells [2]) | increase of the amount of insulin secreted compared to control group (DMSO) (INS-1 cells [3]) |
| --- | --- | --- | --- |
| CC(C)=CCC[C@](C)(O[C@@H]1O[C@H](CO)[C@@H](O)[C@H](O)[C@H]1O)[C@H]1CC[C@]2(C)[C@@H]1[C@H](O)C[C@@H]1[C@@]3(C)CC[C@H](O)C(C)(C)[C@@H]3[C@@H](O)C[C@]12C [ginsenoside F1] | about 40% | about 20% | 50% |
| CC(C)=CCC[C@](C)(O[C@@H]1O[C@H](CO[C@@H]2OC[C@H](O)[C@H](O)[C@H]2O)[C@@H](O)[C@H](O)[C@H]1O)[C@H]1CC[C@]2(C)[C@@H]1[C@H](O)C[C@@H]1[C@@]3(C)CC[C@H](O[C@@H]4O[C@H](CO)[C@@H](O)[C@H](O)[C@H]4O[C@@H]4O[C@H](CO)[C@@H](O)[C@H](O)[C@H]4O)C(C)(C)[C@@H]3CC[C@]12C [ginsenoside Rb2] | about 40% | about 20% | 50% |
| CC(C)=CCC[C@](C)(O[C@@H]1O[C@H](CO[C@@H]2OC[C@@H](O)[C@H](O)[C@H]2O)[C@@H](O)[C@H](O)[C@H]1O)[C@H]1CC[C@]2(C)[C@@H]1[C@H](O)C[C@@H]1[C@@]3(C)CC[C@H](O[C@@H]4O[C@H](CO)[C@@H](O)[C@H](O)[C@H]4O[C@@H]4O[C@H](CO)[C@@H](O)[C@H](O)[C@H]4O)C(C)(C)[C@@H]3CC[C@]12C [ginsenoside Rb3] | about 40% | about 20% | 50% |
| CC(C)=CCC[C@](C)(O)[C@H]1CC[C@]2(C)[C@@H]1[C@H](O)C[C@@H]1[C@@]3(C)CC[C@H](O[C@@H]4O[C@H](CO)[C@@H](O)[C@H](O)[C@H]4O[C@@H]4O[C@H](CO)[C@@H](O)[C@H](O)[C@H]4O)C(C)(C)[C@@H]3CC[C@]12C [ginsenoside Rg3] | about 40% | about 20% | 50% |
| CC(C)=CCC[C@](C)(O[C@@H]1O[C@H](CO[C@@H]2O[C@H](CO)[C@@H](O)[C@H](O)[C@H]2O)[C@@H](O)[C@H](O)[C@H]1O)[C@H]1CC[C@]2(C)[C@@H]1[C@H](O)C[C@@H]1[C@@]3(C)CC[C@H](O)C(C)(C)[C@@H]3CC[C@]12C [gypenoside 75] | 50% | about 40% | about 110% |
